SMILES strings stand for the structures.

Regarding `CC(C)[Si](OC(=O)Cc1cc(I)c(Oc2cc(I)c(O)c(I)c2)c(I)c1)(C(C)C)C(C)C`, the melting point was 146 °C. The molecule `C=C(C)C(=O)OCCCCOC(=O)C(=C)C` yielded a melting point of -117 °C. Take `CC(NC(=O)C(CC(C(=O)O)C(C)(C)C)NC(=O)C(CC(C(=O)O)C(C)(C)C)NC(=O)C(NC(=O)OCc1ccccc1)C(C)C)C(=O)NC(CC(C(=O)O)C(C)(C)C)C(=O)NC(CC(N)=O)C(=O)OC(C)(C)C` (stereo not given): the melting point lay within 217 to 219 °C. The result for `COC(=O)c1cc(C(C)(C)C)c(OP2OP(Oc3c(C(C)(C)C)cc(C(=O)OC)cc3C(C)(C)C)OP(Oc3c(C(C)(C)C)cc(C(=O)OC)cc3C(C)(C)C)O2)c(C(C)(C)C)c1` (stereo not given) reads 185 to 200 °C.

In the case of `CCCCCCCCCCCCCCCCNc1ccc(C(=O)OCC(COC(=O)c2ccc(NCCCCCCCCCCCCCCCC)cc2)OC(=O)c2ccc(NCCCCCCCCCCCCCCCC)cc2)cc1`, the melting point was 117 to 118 °C. Next, `COC(=O)CNC(=O)[C@H](NC(=O)[C@@H](CSC(c1ccccc1)(c1ccccc1)c1ccccc1)NC(=O)[C@@H](CCCCNC(=O)OC(C)(C)C)NC(=O)C[C@H](O)C=CCCSC(c1ccccc1)(c1ccccc1)c1ccccc1)C(C)C`: 85 to 87 °C; `CCCCCCCCCCCCCC=CC(OC(=O)c1ccccc1)C(COC1OC(CO)C(O)C(OCCCCC(C(=O)OC(C)(C)C)C(=O)OC(C)(C)C)C1O)NC(=O)CCCCCCCCCCCCCCC` (stereo not given): 131 to 132 °C. Molecule `CC(C)=CCC/C(C)=C/CC/C(C)=C/CC/C=C(\C)CC/C=C(\C)CCC=C(C)C` yielded a melting point of -5 °C. Next, `O=C(OCC(OC(=O)C1CCCCC1)C(OC(=O)C1CCCCC1)C(OC(=O)C1CCCCC1)C(COC(=O)C1CCCCC1)OC(=O)C1CCCCC1)C1CCCCC1` (stereo not given): 135 to 140 °C; `CCCCCCCCCCCCCCCCCCN(CCCCCCCCCCCCCCCCCC)C(=O)c1cc(NS(=O)(=O)c2cnc(Cl)c(OC)c2)c2ccccc2c1O`: 85 to 87 °C.

Regarding `COc1cccc(Sc2cc3c(cc2Sc2cccc(OC)c2)C(=O)c2c(c(O)c4cc(Sc5cccc(OC)c5)c(Sc5cccc(OC)c5)cc4c2O)C3=O)c1`, the melting point fell in the range of 287 to 292 °C. The result for `C=C(C)C(=O)Nc1ccc2ncnc(Nc3cccc(Br)c3)c2c1` reads 244 to 245 °C; that for `CC(=O)OCC(CNC(=O)c1c(I)c(C(=O)NCC(COC(C)=O)OC(C)=O)c(I)c(N2CCCC2=O)c1I)OC(C)=O` (stereo not given), 130 to 133 °C.

In turn, `NCC1Cc2cc(F)cc(-c3ccoc3)c2O1` (stereo not given) yielded a melting point of 236 to 239 °C. Consider `O=C(Nc1ccc(Br)cc1)OC1CCCNC1` (stereo not given), for which the melting point was in the range of 169 to 170 °C. The result for `CCCCCCc1cc(S(C)(=O)=NS(=O)(=O)c2ccc(C)cc2)ccc1O` (stereo not given) reads 109 to 110 °C; that for `O=C(Oc1ccc2c(OC(=O)c3ccc(OCc4ccccc4)cc3)c3cc(OC(=O)c4ccc(OCc5ccccc5)cc4)ccc3cc2c1)c1ccc(OCc2ccccc2)cc1`, 219 to 221 °C; that for `CCCCNC1=CCC(C)n2c1ncc(C(=O)O)c2=O` (stereo not given), 135 to 137 °C. The result for `O=C(O)CN1CCN(CC(=O)O)CCN(CC(=O)Nc2c(I)cc(I)c(C(=O)O)c2I)CCN(CC(=O)O)CC1` reads 235 °C; that for `CCc1nc(OC)c(NC(=O)N2CCN(c3cc(C)cc(C)c3)CC2)cc1C(=O)NC(C)C(=O)Nc1cc(CO)cc(Nc2c3ccccc3nc3c(C)c(C)ccc23)c1` (stereo not given), 176 to 178 °C; that for `CC(C)[C@H](NC(=O)N(C)Cc1csc(N)n1)C(=O)N[C@@H](Cc1ccccc1)[C@H](O)[C@@H](O)[C@H](Cc1ccccc1)NC(=O)[C@@H](NC(=O)N(C)Cc1csc(N)n1)C(C)C`, 122 to 124 °C. In turn, `CSc1ccccc1C(=O)Nc1ccc(C(=O)N2Cc3cccn3Cc3ccccc32)cc1` registered a melting point of 171 to 174 °C. The molecule `CC(C)(C)c1cc(C(=O)OCCN(CCOC(=O)c2cc(C(C)(C)C)c(O)c(C(C)(C)C)c2)C(=O)c2cc(C(C)(C)C)c(O)c(C(C)(C)C)c2)cc(C(C)(C)C)c1O` returned a melting point of 200 to 202 °C. Next, `Cc1ccc(S(=O)(=O)N2CCN(S(=O)(=O)c3ccc(C)cc3)CCN(S(=O)(=O)c3ccc(C)cc3)CC(C)N(S(=O)(=O)c3ccc(C)cc3)CCN(S(=O)(=O)c3ccc(C)cc3)CC2)cc1` (stereo not given): 245 to 247 °C. In turn, `CCCc1[nH]c2ccccc2c1C1(c2ccc(N(CC)CC)cc2OCCCCOc2cc(N(CC)CC)ccc2C2(c3c(CCC)[nH]c4ccccc34)OC(=O)c3ccccc32)OC(=O)c2ccccc21` (stereo not given) displayed a melting point of 140 °C. The result for `Cc1ccc(Cc2cc(OCCCCCCCCCCCCP(=O)(O)O)ccc2S(=O)(=O)c2ccc(OCCCCCCCCCCCCP(=O)(O)O)cc2Cc2ccc(C)cc2)cc1` reads 148 to 150 °C; that for `CC(=O)OCC=C(C)CCC=C(C)CCC=C(C)CCC=C(C)CCC=C(C)CCC=C(C)CCC=C(C)CCC=C(C)CCC=C(C)CCC=C(C)CCC=C(C)C`, 36 to 37 °C. Consider `CCCCCCCCCCCCCC(=O)NC1C(OCC(=O)O)OC(COC2OC(CO)C(OP(=O)(O)O)C(OC(=O)CNC(=O)CCCCCCCCCCC)C2NC(=O)CCCCCCCCCCCCC)C(O)C1OC(=O)CCCCCCCCCCCCC` (stereo not given), for which the melting point fell in the range of 150 to 155 °C. The result for `CN(C(=O)Cc1c(-c2ccccc2)c2ccccc2c(=O)n1C)c1cc(C(F)(F)F)cc(C(F)(F)F)c1` reads 193 to 194 °C.

Molecule `COC(=O)COC1C(NC(C)=O)C(OCc2ccccc2)OC(COCc2ccccc2)C1OC1(N)OC(COCc2ccccc2)C(OCc2ccccc2)C(OCc2ccccc2)C1C(=O)OCC(Cl)(Cl)Cl` (stereo not given) showed a melting point of 176 to 178 °C. Take `CCC(C)CNC(=O)C(CC(O)C(CC(C)C)NC(=O)C(Cc1cscn1)NC(=O)C(CC(=O)N(C)C1CCCCC1)Cc1cccc2ccccc12)C(C)(C)O` (mixture of isomers): the melting point fell in the range of 187 to 190 °C. Next, `F[Si](c1ccccc1)(c1ccccc1)c1ccccc1`: 64 °C; `CCN(CC)CCN=S(=O)(c1ccccc1)c1cccnc1` (stereo not given): 130 °C; `FC(F)(F)c1ccc(-c2cc(-c3ccc(C(F)(F)F)cc3C(F)(F)F)c3ccc4c(-c5ccc(C(F)(F)F)cc5C(F)(F)F)cc(-c5ccc(C(F)(F)F)cc5C(F)(F)F)c5ccc2c3c54)c(C(F)(F)F)c1`: 290 °C.

`C=CCN(CC=C)c1nc(NC(C)(C)CC(C)(C)C)nc(N(CCCCCCN(c2nc(NC(C)(C)CC(C)(C)C)nc(N(CC=C)CC=C)n2)C2CC(C)(C)NC(C)(C)C2)C2CC(C)(C)NC(C)(C)C2)n1` displayed a melting point of 113 to 115 °C.

Regarding `CC12CC3CC(C)(C1)CC(N)(C3)C2`, the melting point came to 153 °C. Next, `CC(C)[C@@H](NC(=O)[C@@H](CSC(c1ccccc1)(c1ccccc1)c1ccccc1)NC(=O)[C@@H](C)NC(=O)C[C@H](O)/C=C/CCSC(c1ccccc1)(c1ccccc1)c1ccccc1)C(=O)NCC(=O)O`: 191 to 193 °C; `CCCCCCCCCCSc1c(SCCCCCCCCCC)c(SCCCCCCCCCC)c(SCCCCCCCCCC)c(SCCCCCCCCCC)c1SCCCCCCCCCC`: 29 to 30 °C; `O=C1OC(O)c2cccc(F)c21` (stereo not given): 126 to 127 °C. `O=C(O)Cc1cccc(-c2cc(C(=O)CCCCC(=O)c3ccc(OC4OC(CO)C(O)C(O)C4O)c(-c4cccc(CC(=O)O)c4)c3)ccc2OC2OC(CO)C(O)C(O)C2O)c1` (stereo not given) showed a melting point of 127 to 129 °C. Molecule `CC(C)(C)OC(=O)CC[C@H](NC(=O)CNC(=O)[C@H](CSC(c1ccccc1)(c1ccccc1)c1ccccc1)NC(c1ccccc1)(c1ccccc1)c1ccccc1)C(=O)OC(C)(C)C` came in with a melting point of 98 to 110 °C. On to `Cc1nn(-c2ccc(C(F)(F)F)cn2)cc1CCCOc1cccc(OC(C)(C)C(=O)O)c1`, for which the melting point fell in the range of 107 to 108 °C. With `CC1(C)CC2(CC(C)(C)N1)NC(=O)N(CC(COc1ccc(C(C)(C)c3ccc(OCC(CN4C(=O)NC5(CC(C)(C)NC(C)(C)C5)C4=O)OC(=O)Nc4ccccc4)cc3)cc1)OC(=O)Nc1ccccc1)C2=O` (stereo not given), the melting point lay in the range of 202 to 207 °C. On to `Cc1c(Cc2ccccc2)sc2nc(N)[nH]c(=O)c12`, for which the melting point lay in the range of 292 to 294 °C.

`CC=C(C)C(=O)NC(c1ccccc1)C(O)C(=O)OC1CC2(O)C(OC(=O)c3ccccc3)C3C4(OC(C)=O)COC4CC(O)C3(C)C(=O)C(OC(C)=O)C(=C1C)C2(C)C` (stereo not given) had a melting point of 184 to 186 °C.

For the molecule `COc1cc(OC)c(/C=C/C(c2ccc(OC)c(NC(=O)C(F)(F)C(F)(F)F)c2)S(=O)(=O)C(/C=C/c2c(OC)cc(OC)cc2OC)c2ccc(OC)c(NC(=O)C(F)(F)C(F)(F)F)c2)c(OC)c1` (stereo not given), the melting point lay in the range of 179 to 180 °C. `COc1cc(OC)c(C=CC(c2ccc(OC)c(NC(=O)C(C)O)c2)S(=O)(=O)C(C=Cc2c(OC)cc(OC)cc2OC)c2ccc(OC)c(NC(=O)C(C)O)c2)c(OC)c1` (stereo not given) displayed a melting point of 174 to 176 °C. The result for `CC(COC(=O)CCc1cc(C(C)(C)C)c(O)c(C(C)(C)C)c1)(COC(=O)CCc1cc(C(C)(C)C)c(O)c(C(C)(C)C)c1)COC(=O)CCc1cc(C(C)(C)C)c(O)c(C(C)(C)C)c1` reads 55 to 78 °C; that for `CC(NC(=O)C(CC(C(=O)O)C(C)(C)C)NC(=O)C(CC(C(=O)O)C(C)(C)C)NC(=O)C(NC(=O)C(N)C(C)C)C(C)C)C(=O)NC(CC(C(=O)O)C(C)(C)C)C(=O)NC(CC(N)=O)C(=O)OC(C)(C)C` (stereo not given), 229 to 231 °C. The result for `CCCCC(CC)CN1C(=O)C(=Cc2cc3c(s2)c2sc(-c4ccc(N(c5ccccc5)c5ccccc5)cc4)cc2n3CC(CC)CCCC)C(C)=C(C#N)C1=O` (stereo not given) reads 137 to 140 °C. `[C-]#[N+]C(c1cc(Br)c(OC)c(OC)c1)S(=O)(=O)c1ccc(C)cc1` (stereo not given): the melting point was in the range of 109 to 110 °C.

In turn, `CCOc1ccc(C(=CC2(C=C(c3ccc(OCC)cc3)c3ccc(N4CCCC4)cc3)OC(=O)c3c(Cl)c(Cl)c(Cl)c(Cl)c32)c2ccc(N3CCCC3)cc2)cc1` (stereo not given) showed a melting point of 221 to 223 °C.

With `N#Cc1ccc(C=Cc2ccc(OCc3ccc4ccccc4n3)cc2)cc1`, the melting point is 116 to 118 °C. Next, `CC(C)(C)c1cc(CCC(=O)NN=C(O)c2cc(-c3ccc(C(=O)O)c(C(O)=NNC(=O)CCc4cc(C(C)(C)C)c(O)c(C(C)(C)C)c4)c3)ccc2C(=O)O)cc(C(C)(C)C)c1O`: 291 to 293 °C; `ON=C(Cl)c1ccc(Cl)cc1`: 87.5 °C.

A word on the melting point: it is the temperature, or range, at which the solid turns liquid.

Source of the values: a melting point compilation (Tetko et al.).
